Data from patent US10961233B2 (LIFEARC, priority 2016, dated 2021).

How the values were obtained:
[1] = target: WT full length PAICS (Homo sapiens (Human), UniProt P22234); assay: Biochemical assay to measure PAICS activity (Transcreener ADP2 FI); conditions: SAICAR synthetase reaction, ADP detection, 30 min pre-incubation
Excerpt: Biochemical Assay to Measure PAICS Activity
The biochemical assay was used to measure PAICS SAICAR synthetase-mediated conversion of CAIR, aspartic acid and ATP to SAICAR, ADP and inorganic phosphate (Pi), post-AIR/CAIR equilibration (see FIG. 3). This was achieved by detecting the ADP generated during the reaction, using Bellbrook Lab's Transcreener ADP^2 FI assay. An increase in the fluorescence intensity is directly proportional to the amount of PAICS activity.
The Transcreener ADP^2 FI assay is a homogeneous competitive displacement fluorescence intensity assay which uses direct immunodetection of ADP. Displacement of the tracer by ADP causes an increase in the fluorescence at excitation 590 nm and emission 617 nm (FIG. 3).
5 μl WT full length PAICS (final assay concentration, fac, 2.5 nM) in basic buffer, added to black, non-binding, 384-well plates (Corning #3575), columns 1 to 22. 5 μl basic buffer was added to columns 23+24 (negative control). PAICS stock at 31.9 μM from the PI's lab (Steve Firestine). Basic buffer contained 50 mM Tris-HCl pH8 and 0.5 mM EDTA, fac.
1 μl compound in 100% DMSO added per well, or 1 μl 100% DMSO to positive controls (columns 1+2) and negative controls (columns 23+24). Final assay top concentration of compound either 1 mM or 30-μM, serially diluted with half-log dilutions across the plate in duplicate (one 10-point concentration response curve across wells 3 to 12, another across 13 to 22). Compounds pre-incubated with PAICS enzyme for 30 mins at RT. 2 μl CAIR added (fac 10 μM) in basic buffer plus 25 mM MgCl2 and 50 mM KHCO3 fac to all wells. CAIR stock 50 mM from Steve Firestine's lab. 1 hr RT incubation for AIR-CAIR equilibration. NB: ˜50% CAIR is decarboxylated during equilibration therefore 5 μM remains for the synthetase reaction.
2 μl ATP/aspartic acid added (fac 30 μM/180 μM) in reaction buffer to all wells. 30 mins RT incubation for appropriate level of ATP turnover. Reaction buffer contained basic buffer plus 10 mM DTT, 0.01% BSA and 0.01% Brij 35, fac.
10 μl ADP detection reagent added to all wells (as per instructions, Transcreener ADP^2 FI kit, BellBrook Labs #3013-10K). Incubation for 1 h at RT to allow antibody equilibration. Fluorescence intensity determined using a Tecan Safire2 (excitation at 590 nm, emission at 617 nm).

[2] = tested on: LM2 and MDA-MB-231 breast cancer cell lines; assay: PAICS 2D cell proliferation assay (CellTiter-Glo viability, 72 h); assay type: cell-based; conditions: Homo sapiens; 72 h incubation; cell line not given
Experimental: PAICS 2D Cell Proliferation Assay
Frozen cryovial stocks of LM2 and MDA-MB-231 breast cancer cell lines were thawed and cultured in 4.5 g/L glucose DMEM (31966-047, Invitrogen) supplemented with 10% Fetal Bovine Serum (10500-064, Invitrogen) until confluent in a T175 flask. Cells were incubated at 37° C. with 5% CO2 in a humidified incubator.
Cells were collected from T175 flasks by washing with PBS (10010-056, Invitrogen) and dissociated using Accutase (A6964, Sigma Aldrich). This was followed by centrifuging (1200 rpm, 5 min) and resuspending the cells in 10 ml of media containing 1% penicillin/streptomycin (15140-122, Invitrogen). Cells were counted by trypan blue exclusion method using an automated cell counter (Cellometer) and diluted to a concentration of 40,000/ml. 1000 cells were then seeded into 384-well white-walled plates (Corning, 3707) in a volume of 25 μl. Plates were Incubated overnight at 37° C. with 5% CO2.
After 24 hours, PAICS compounds were added onto the assay plates using an HP D300 Digital Dispenser (Hewlett Packard). 10 mM stocks were used and dispensed as a 10 point concentration response curve (CRC) ½ log dilution series with a final top concentration of 100 μM. Controls were added onto each plate: positive controls included Staurosporine CRC (100 μM stock dispensed as a 10 point CRC ½ log dilution series with a final top concentration of 1 μM) and PAICS compound MRT00211919 (10 mM stock dispensed as a 10 point CRC ½ log dilution series with a final top concentration of 100 μM); a high control of Staurosporine (0.1 μM (LM2), 0.316 μM (MDA-MB-231) FAC) and a low control of media containing 1% DMSO. A final concentration of 1% DMSO was then added across the plates for normalisation. Following compound addition, assay plates were incubated for 72 hours at 37° C. with 5% CO2.
Day 5—Cytotoxicity and Cell Viability Assays
After 72 h incubation, dead and viable cells were measured in each assay plate. Cytotoxicity was assessed through fluorescent DNA staining using the CellTox™ Green Cytotoxicity Assay kit (G8743, Promega) following the manufacturer's multiplexing protocol. Impaired cell membrane integrity results in the access of dye to stain DNA allowing quantification of dead cells. Cell viability was determined following ATP quantification using the CellTiter-Glo® Luminescent Cell Viability Assay kit (G7572, Promega) following the manufacturer's protocol. ATP released from lysed cells allowed for the generation of a signal proportional to the number of cells present in the well. All endpoint reads were performed using the PheraSTAR Plus (BMG Labtech). Data is expressed as % viable cells and % dead cells against controls (mean±SEM of duplicate curves).

[3] = tested on: wild type LM2 and CRISPR edited LM2; assay: 2D cell proliferation assay, wild type LM2 versus PAICS CRISPR edited LM2; assay type: cell-based, human; conditions: LM2 cells, PAICS CRISPR edited vs wild type
Experimental: Cas9 nuclease-mediated gene editing (Sander and Joung, 2014) was performed using a CRISPR RNA guide sequence ([…], PAM: AGG) targeting exon 3 in the human PAICS gene (accession number: NM_006452).
Stable cell clones were isolated and gene disruption confirmed by DNA sequencing and the absence of PAICS cellular protein expression confirmed by Western blotting.
A small set of compounds were tested against wild type LM2 and CRISPR edited LM2 in the 2D cell proliferation assay to establish to what extent the cellular potency was driven by PAICS mediated effects. The data is shown in Table 2: compounds tested had no effect on CRISPR edited cells, confirming the on-targets effect as being PAICS mediated.

WT full length PAICS, sequence (P22234 whole entry): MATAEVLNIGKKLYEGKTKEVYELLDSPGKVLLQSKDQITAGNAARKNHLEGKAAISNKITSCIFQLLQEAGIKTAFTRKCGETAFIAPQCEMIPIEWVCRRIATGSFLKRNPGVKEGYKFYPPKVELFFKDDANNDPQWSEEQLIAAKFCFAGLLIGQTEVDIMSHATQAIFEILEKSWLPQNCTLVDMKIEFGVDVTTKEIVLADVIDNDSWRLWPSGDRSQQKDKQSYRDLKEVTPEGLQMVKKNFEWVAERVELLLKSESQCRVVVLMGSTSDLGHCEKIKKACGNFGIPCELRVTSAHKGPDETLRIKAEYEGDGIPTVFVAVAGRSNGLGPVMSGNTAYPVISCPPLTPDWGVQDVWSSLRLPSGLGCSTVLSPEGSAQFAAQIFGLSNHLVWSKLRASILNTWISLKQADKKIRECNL

SMILES	IC50 [1]	EC50 [2]	Potency shift: CRISPR Cell EC50/WT Cell EC50 [3]
CN(C)CCOC(=O)N1CCN(c2ccc(Br)c(NC(=O)c3coc(N)n3)c2)CC1 [Example 23, 2-(Dimethylamino)ethyl 4-(3-(2-aminooxazole-4-carboxamido)-4-bromophenyl)piperazine-1-carboxylate]	0.01 to 0.025 µM	0.1 to 0.25 µM	>500
CN(C)CCCOC(=O)N1CCN(c2ccc(Br)c(NC(=O)c3coc(N)n3)c2)CC1 [Example 24, 3-(Dimethylamino)propyl 4-(3-(2-aminooxazole-4-carboxamido)-4-bromophenyl)piperazine-1-carboxylate]	0.01 to 0.025 µM	0.1 to 0.25 µM	>500
CNCCS(=O)(=O)N1CCN(c2ccc(Br)c(NC(=O)c3coc(N)n3)c2)CC1 [Example 55, 2-Amino-N-[2-bromo-5-(4-{[2-(methylamino)ethyl]sulfonyl}piperazin-1-yl)phenyl]-1,3-oxazole-4-carboxamide]	< 0.01 µM	< 0.1 µM	>500
CN1CCC(NCCS(=O)(=O)N2CCN(c3ccc(Br)c(NC(=O)c4coc(N)n4)c3)CC2)CC1 [Example 64, 2-Amino-N-{2-bromo-5-[4-({2-[(1-methylpiperidin-4-yl)amino]ethyl}sulfonyl)piperazin-1-yl]phenyl}-1,3-oxazole-4-carboxamide]	< 0.01 µM	0.1 to 0.25 µM	
CCNCCS(=O)(=O)N1CCN(c2ccc(Cl)c(NC(=O)c3coc(N)n3)c2)CC1 [Example 65, 2-Amino-N-[2-chloro-5-(4-{[2-(ethylamino)ethyl]sulfonyl}piperazin-1-yl)phenyl]-1,3-oxazole-4-carboxamide]	0.01 to 0.025 µM	0.1 to 0.25 µM	
CCCNCCS(=O)(=O)N1CCN(c2ccc(Cl)c(NC(=O)c3coc(N)n3)c2)CC1 [Example 66, 2-Amino-N-[2-chloro-5-(4-{[2-(propylamino)ethyl]sulfonyl}piperazin-1-yl)phenyl]-1,3-oxazole-4-carboxamide]	0.01 to 0.025 µM	0.1 to 0.25 µM	
Nc1nc(C(=O)Nc2cc(N3CCN(S(=O)(=O)CCCN4CCCC4)CC3)ccc2Br)co1 [Example 67, 2-Amino-N-[2-bromo-5-(4-{[3-(pyrrolidin-1-yl)propyl]sulfonyl}piperazin-1-yl)phenyl]-1,3-oxazole-4-carboxamide]	< 0.01 µM	< 0.1 µM	
CN(C)CCCS(=O)(=O)N1CCN(c2ccc(Cl)c(NC(=O)c3coc(N)n3)c2)CC1 [Example 68, 2-Amino-N-[2-chloro-5-(4-{[3-(dimethylamino)propyl]sulfonyl}piperazin-1-yl)phenyl]-1,3-oxazole-4-carboxamide]	0.01 to 0.025 µM	0.25 to 0.5 µM	
CCNCCCS(=O)(=O)N1CCN(c2ccc(Br)c(NC(=O)c3coc(N)n3)c2)CC1 [Example 70, 2-Amino-N-[2-bromo-5-(4-{[3-(ethylamino)propyl]sulfonyl}piperazin-1-yl)phenyl]-1,3-oxazole-4-carboxamide]	< 0.01 µM	< 0.1 µM	
CC(C)NCCCS(=O)(=O)N1CCN(c2ccc(Cl)c(NC(=O)c3coc(N)n3)c2)CC1 [Example 72, 2-Amino-N-[2-chloro-5-(4-{[3-(propan-2-ylamino)propyl]sulfonyl}piperazin-1-yl)phenyl]-1,3-oxazole-4-carboxamide]	< 0.01 µM	0.1 to 0.25 µM	
CNCCCS(=O)(=O)N1CCN(c2ccc(Cl)c(NC(=O)c3coc(N)n3)c2)CC1 [Example 73, 2-Amino-N-[2-chloro-5-(4-{[3-(methylamino)propyl]sulfonyl}piperazin-1-yl)phenyl]-1,3-oxazole-4-carboxamide]	0.01 to 0.025 µM	0.25 to 0.5 µM	
CCNCCCS(=O)(=O)N1CCN(c2ccc(Cl)c(NC(=O)c3coc(N)n3)c2)CC1 [Example 74]	< 0.01 µM	0.25 to 0.5 µM	
CNCCCS(=O)(=O)N1CCN(c2ccc(Br)c(NC(=O)c3coc(N)n3)c2)CC1 [Example 75, 2-Amino-N-[2-bromo-5-(4-{[3-(methylamino)propyl]sulfonyl}piperazin-1-yl)phenyl]-1,3-oxazole-4-carboxamide]	< 0.01 µM	0.1 to 0.25 µM	
CC(C)NCCCS(=O)(=O)N1CCN(c2ccc(Br)c(NC(=O)c3coc(N)n3)c2)CC1 [Example 76, 2-Amino-N-[2-bromo-5-(4-{[3-(propan-2-ylamino)propyl]sulfonyl}piperazin-1-yl)phenyl]-1,3-oxazole-4-carboxamide]	< 0.01 µM	< 0.1 µM	
CCN(CC)CCCS(=O)(=O)N1CCN(c2ccc(Br)c(NC(=O)c3coc(N)n3)c2)CC1 [Example 77, 2-Amino-N-[2-bromo-5-(4-{[3-(diethylamino)propyl]sulfonyl}piperazin-1-yl)phenyl]-1,3-oxazole-4-carboxamide]	< 0.01 µM	< 0.1 µM	
Nc1nc(C(=O)Nc2cc(N3CCN(S(=O)(=O)C4CCNCC4)CC3)ccc2Br)co1 [Example 84]	< 0.01 µM	0.1 to 0.25 µM	
CN1CCC(S(=O)(=O)N2CCN(c3ccc(Br)c(NC(=O)c4coc(N)n4)c3)CC2)CC1 [Example 85, 2-Amino-N-(2-bromo-5-{4-[(1-methylpiperidin-4-yl)sulfonyl]piperazin-1-yl}phenyl)-1,3-oxazole-4-carboxamide]	< 0.01 µM	0.1 to 0.25 µM	
Nc1nc(C(=O)Nc2cc(N3CCN(S(=O)(=O)C4CCNCC4)CC3)ccc2Cl)co1 [Example 86, 2-Amino-N-{2-chloro-5-[4-(piperidin-4-ylsulfonyl)piperazin-1-yl]phenyl}-1,3-oxazole-4-carboxamide]	0.01 to 0.025 µM	0.25 to 0.5 µM	
CN1CCC(S(=O)(=O)N2CCN(c3ccc(Cl)c(NC(=O)c4coc(N)n4)c3)CC2)CC1 [Example 87, 2-Amino-N-{2-chloro-8-(4-[(1-methylpiperidin-4-yl)sulfonyl]piperazin-1-yl}phenyl)-1,3-oxazole-4-carboxamide]	0.01 to 0.025 µM	0.25 to 0.5 µM	
